Laboratory results published in patent publication US6750232B2, “2-aminopyridine compounds and use thereof as drugs” (Eisai Co., Ltd., priority 2000, dated 2004).

Key:
SD IGS rats = experiment: Evaluation of defecation-promoting action; type: in vivo, rat; details: oral, 90 minutes after administration, per cage
Excerpt: Evaluation of Defecation-Promoting Action
The defecation-promoting action of the adenosine A2b receptor-inhibiting compound which was identified by measuring the binding ability and inhibitory ability thereof to the adenosine receptor in Test Example 1, a salt thereof, a hydrate of them, or a pharmaceutical composition containing it can be evaluated on the basis of the following method. That is, SD IGS rats (6 weeks-old, from Charles River) were placed in cages (3 animals/cage) and preliminarily allowed food and water ad libitum and raised for 1 week. Then, a tared water-absorbing sheet was placed below each cage, and the animals were fasted but allowed water ad libitum throughout the experiment. After 1.5 hours, the fecal pellets were recovered from each cage and observed for abnormality before the experiment. The compound suspended or dissolved in 0.5% (w/v) methyl cellulose (MC) was orally administered in a dose of 5 ml/kg. On one hand, 0.5% (w/v) MC only was orally given to the control group. After administration of the compound, the rats were returned to the cage provided with a new water-absorbing sheet, and 90 minutes after the administration, the fecal pellets on the water-absorbing sheet were recovered from each cage, and the external appearance was observed, and then counted and weighed. The number of fecal pellets is expressed per each cage. After the fecal pellets were recovered, the water-absorbing sheet was weighed, and the weight determined by subtracting the initial weight of the water-adsorbing sheet from the weight after the experiment was regarded as the volume of urine.

[1] = biological target: T1, human adenosine A1 receptor (Homo sapiens, UniProt P30542); experiment: Measurement of the ability to bind to adenosine A1 receptor (3H-CCPA binding inhibition); details: membrane of CHOK1 cells expressing human A1 receptor, Cheng-Prusoff
T1 construct: expressed in transfected cells; host or cells: CHOK1 cells (membrane sample)
T1 sequence (P30542 1-326): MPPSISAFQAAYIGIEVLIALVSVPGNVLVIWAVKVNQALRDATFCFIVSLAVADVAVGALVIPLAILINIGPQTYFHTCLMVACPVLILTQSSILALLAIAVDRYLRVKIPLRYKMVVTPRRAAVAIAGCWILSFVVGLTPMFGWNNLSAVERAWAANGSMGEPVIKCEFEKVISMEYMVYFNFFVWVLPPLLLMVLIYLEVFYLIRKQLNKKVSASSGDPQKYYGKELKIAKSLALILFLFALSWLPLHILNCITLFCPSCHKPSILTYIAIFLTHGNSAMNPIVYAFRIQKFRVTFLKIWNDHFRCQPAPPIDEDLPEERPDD
Procedure: Measurement of the Ability to Bind to Adenosine A1 Receptor
A human adenosine A1 receptor cDNA was expressed in excess in CHOK1 cells, and this membrane sample was added at a protein concentration of 66.7 μg/ml to, and suspended in, 20 mM HEPES buffer, pH 7.4 (10 mM MgCl2, 100 mM NaCl). To 0.45 ml of this membrane sample suspension were added 0.025 ml of 60 nM tritium-labeled chlorocyclopentyl adenosine (^3H—CCPA, from NEN Ltd.) and 0.025 ml test compound. This mixture was left at 30° C. for 120 minutes, filtered rapidly under suction through a glass fiber filter (GF/B, from Whatman), and immediately washed twice with 5 ml of 50 mM water-cooled Tris-HCl buffer. Thereafter, the glass fiber filter was transferred to a vial, a scintillator was added thereto, and the radioactivity on the filter was measured by a liquid scintillation counter. The inhibition of binding of ^3H—CCPA to A1 receptor by the test compound was determined using the following formula, and from this inhibition, 50% inhibition concentration (IC50) was calculated (the following equation).
Inhibition (%)=[1−{binding in the presence of the test compound-non-specific binding)/(total binding-non-specific binding)}]×100
In the above formula, the total binding means ^3H—CCPA-bound radioactivity in the absence of the test compound; the non-specific binding means ^3H—CCPA-bound radioactivity in the presence of 100 μM RPIA ([R]-[1-methyl-2-phenylethyl] adenosine); and the binding in the presence of the test compound means ^3H—CCPA-bound radioactivity in the presence of the test compound at predetermined concentrations. The inhibition constant (Ki value) in the table was determined from the formula of Cheng-Prusoff.

[2] = biological target: T2, human adenosine A2b receptor (Homo sapiens, UniProt P29275); experiment: Inhibition of NECA-stimulated production of cAMP in adenosine A2b receptor-expressing cells; type: cell-based; details: CHOK1 cells expressing human A2b receptor, 30 nM NECA
T2 construct: expressed in transfected cells; host or cells: CHOK1 cells
T2 sequence (P29275 1-332): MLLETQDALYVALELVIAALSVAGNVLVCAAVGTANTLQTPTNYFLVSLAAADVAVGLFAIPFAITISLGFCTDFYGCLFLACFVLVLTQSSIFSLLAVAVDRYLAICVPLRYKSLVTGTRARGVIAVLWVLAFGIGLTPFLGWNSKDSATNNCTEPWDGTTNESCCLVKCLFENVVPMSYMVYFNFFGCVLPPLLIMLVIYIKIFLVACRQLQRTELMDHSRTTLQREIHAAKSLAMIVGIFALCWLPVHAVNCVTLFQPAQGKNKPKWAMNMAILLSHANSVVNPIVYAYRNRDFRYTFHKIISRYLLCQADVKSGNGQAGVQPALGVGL
Procedure: Experiment of Inhibition of NECA-stimulated Production of cAMP in Adenosine A2b Receptor-expressing Cells
CHOK1 cells where a human adenosine A2b receptor had been expressed in excess were plated onto a 24-well plate at a density of 1.5×10^5 cells/well, cultured overnight, and used in the experiment. The degree of inhibitory effect of the test compound on the amount of cAMP produced by stimulation with 30 nM 5′-N-ethylcarboxyamide adenosine (NECA from Sigma) was evaluated in terms of affinity for A2b receptor. That is, the adhering cells were washed twice with 2 ml/well Krebs-Ringer buffer solution (containing 0.1% BSA; pH 7.4) and pre-incubated for 30 minutes in a volume of 0.5 ml/well. Then, a mixed solution containing NECA and the test compound was added in a volume of 0.1 ml/well in the presence of a phosphodiesterase inhibitor Ro-20-1724 (a product of RBI). After pre-incubation for 15 minutes, the reaction was terminated with 0.1 N HCl in a volume of 300 μl/well. Measurement of intracellular cAMP was carried out using a cAMP enzyme immunoassay kit produced by Amersham. The inhibition of NECA-stimulated production of cAMP by the test compound was determined using the following equation:
Inhibition (%)=[1−{(amount of cAMP in the coexistence of NECA and the test compound-amount of CAMP in only the Krebs-Ringer buffer solution)/(amount of CAMP upon stimulation with NECA only-amount of cAMP in only the Krebs-Ringer buffer solution)}]×100

adenosine A2a receptor = biological target: T3, adenosine A2a receptor (Homo sapiens, UniProt P29274); experiment: Measurement of the ability to bind to adenosine A2a receptor (3H-CGS21680 binding inhibition); details: A2a receptor membrane sample, 3H-CGS21680, Cheng-Prusoff
T3 construct: purchased Receptor Biology Inc
Procedure: Measurement of the Ability to Bind to Adenosine A2a Receptor
An experiment of inhibition of binding to adenosine A2a receptor was conducted using a membrane sample (Receptor Biology Inc.) where an adenosine A2a receptor cDNA was expressed in excess. This membrane sample was added at a protein concentration of 22.2 μg/ml to, and suspended in, 20 mM HEPES buffer, pH 7.4 (10 mM MgCl2 and 100 mM NaCl). To 0.45 ml of this membrane sample suspension were added 0.025 ml of 500 nM tritium-labeled 2-p-[2-carboxyethyl]phenetylamino-5′-N-ethylarboxyamide adenosine (^3H—CGS21680, from NEN) and 0.025 ml test compound. This mixture was left at 25° C. for 90 minutes, filtered rapidly under suction through a glass fiber filter (GF/B, from Whatman), and immediately washed twice with 5 ml of 50 mM water-cooled Tris-HCl buffer. Thereafter, the glass fiber filter was transferred to a vial, a scintillator was added thereto, and the radioactivity on the filter was measured by a liquid scintillation counter. The inhibition of binding of ^3H—CGS21680 to A2a receptor by the test compound was determined using the following formula, and from this inhibition, 50% inhibition concentration (IC50) was calculated.
Inhibition (%)=[1−{binding in the presence of the test compound-nonspecific binding)/(total binding-nonspecific binding)}]×100
Here, the total binding means ^3H—CGS21680-bound radioactivity in the absence of the test compound; the nonspecific binding means ^3H—CGS21680-bound radioactivity in the presence of 100 μM RPIA; and the binding in the presence of the test compound means ^3H—CGS21680-bound radioactivity in the […] of the test compound at predetermined concentrations. The inhibition constant (Ki value) in the table was determined from the formula of Cheng-Prusoff.

T3 sequence (P29274 whole entry): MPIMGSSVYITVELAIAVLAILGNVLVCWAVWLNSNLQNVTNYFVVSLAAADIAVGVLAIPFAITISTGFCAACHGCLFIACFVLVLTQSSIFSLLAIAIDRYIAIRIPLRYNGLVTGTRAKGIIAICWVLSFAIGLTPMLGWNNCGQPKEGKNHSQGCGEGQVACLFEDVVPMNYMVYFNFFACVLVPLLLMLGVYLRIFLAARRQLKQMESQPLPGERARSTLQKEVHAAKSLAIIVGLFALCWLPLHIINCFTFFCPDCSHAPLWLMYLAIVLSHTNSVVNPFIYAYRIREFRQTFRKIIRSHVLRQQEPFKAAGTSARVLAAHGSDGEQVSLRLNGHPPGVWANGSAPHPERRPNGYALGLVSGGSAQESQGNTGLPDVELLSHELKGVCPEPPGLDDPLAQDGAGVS

## CCn1cc(-c2cc(C#N)c(N)nc2-c2ccco2)ccc1=O [Example 5, 2-Amino-5-(1-ethyl-6-oxo-1,6-dihydro-3-pyridinyl)-6-(2-furyl)nicotinonitrile]
SD IGS rats; 1 mg/kg
  The number of fecal pellets: 7.00 ± 1.23
SD IGS rats; 3 mg/kg
  The number of fecal pellets: 14.25 ± 3.38
[1]
  Ki: 400 nM
[2]
  IC50: 6.5 nM
Adenosine A2a receptor
  Ki: 7 nM

## 2-Amino-6-(fluorophenyl)-5-(4-pyridyl)-3-pyridinecarbonitrile [Example 2]
SD IGS rats; 1 mg/kg
  The number of fecal pellets: 7.80 ± 0.20
SD IGS rats; 10 mg/kg
  The number of fecal pellets: 18.00 ± 1.30
[1]
  Ki: 66 nM
[2]
  IC50: 3.7 nM
Adenosine A2a receptor
  Ki: 22 nM

## N#Cc1cc(-c2ccncc2)c(-c2ccco2)nc1N [Example 1, 2-Amino-6-(2-furyl)-5-(4-pyridyl)-3-pyridinecarbonitrile]
SD IGS rats; 1 mg/kg
  The number of fecal pellets: 1.75 ± 1.03
SD IGS rats; 3 mg/kg
  The number of fecal pellets: 7.25 ± 1.65
SD IGS rats; 10 mg/kg
  The number of fecal pellets: 22.25 ± 2.93
[1]
  Ki: 990 nM
[2]
  IC50: 2.7 nM
Adenosine A2a receptor
  Ki: 23 nM
